Assay results: the kinase profiling compilation of Christmann-Franck et al. (2016)
One block for each compound: values may come before it.

Experiments:
Test in all cases: KINOMEscan competition binding
Settings in all cases: compound 10.0 µM
RIOK1 (human) = RIOK1 (human) (UniProt Q9BRS2)
STK17A (human) = STK17A (human) (UniProt Q9UEE5)
BMPR1B (human) = BMPR1B (human) (UniProt O00238)
[1] = test system: FLT3 (human), P36888 [K663Q]
KIT (human) = KIT (human) (UniProt P10721)
CSNK1G3 (human) = CSNK1G3 (human) (UniProt Q9Y6M4)
PIP4K2B (human) = PIP4K2B (human) (UniProt P78356)
ACVR2B (human) = ACVR2B (human) (UniProt Q13705)
MINK1 (human) = MINK1 (human) (UniProt Q8N4C8)
RIOK2 (human) = RIOK2 (human) (UniProt Q9BVS4)
RIPK4 (human) = RIPK4 (human) (UniProt P57078)
RPS6KA5 KD2 (human) = RPS6KA5 KD2 (human) (UniProt O75582)
AURKC (human) = AURKC (human) (UniProt Q9UQB9)
TNK1 (human) = TNK1 (human) (UniProt Q13470)
CLK3 (human) = CLK3 (human) (UniProt P49761)
CSNK1G1 (human) = CSNK1G1 (human) (UniProt Q9HCP0)
TAOK3 (human) = TAOK3 (human) (UniProt Q9H2K8)
[2] = biological target: JAK3 JH1 catalytic (human) (UniProt P52333)
DAPK1 (human) = DAPK1 (human) (UniProt P53355)
ACVR1 (human) = ACVR1 (human) (UniProt Q04771)
CHUK (human) = CHUK (human) (UniProt O15111)
CDK16 (human) = CDK16 (human) (UniProt Q00536)
MAP4K4 (human) = MAP4K4 (human) (UniProt O95819)
[3] = test system: FLT3 (human), P36888 [N841I]
CAMKK1 (human) = CAMKK1 (human) (UniProt Q8N5S9)
NEK2 (human) = NEK2 (human) (UniProt P51955)
[4] = test system: EIF2AK4 KD2 (human), Q9P2K8 [S808G]
STK24 (human) = STK24 (human) (UniProt Q9Y6E0)
MAP2K4 (human) = MAP2K4 (human) (UniProt P45985)
FLT3 (human) = FLT3 (human) (UniProt P36888)
[5] = test system: KIT (human), P10721 [V559D]
DCLK3 (human) = DCLK3 (human) (UniProt Q9C098)
ACVR2A (human) = ACVR2A (human) (UniProt P27037)
TGFBR2 (human) = TGFBR2 (human) (UniProt P37173)
MYLK3 (human) = MYLK3 (human) (UniProt Q32MK0)
STK16 (human) = STK16 (human) (UniProt O75716)
MAP3K5 (human) = MAP3K5 (human) (UniProt Q99683)
PHKG2 (human) = PHKG2 (human) (UniProt P15735)
[6] = test system: FLT3 (human), P36888 [D835H]
[7] = biological target: JAK1 JH2 pseudokinase (human) (UniProt P23458)
SRPK3 (human) = SRPK3 (human) (UniProt Q9UPE1)
PDGFRB (human) = PDGFRB (human) (UniProt P09619)

Chain of CLK3 (human) (P49761 whole entry, looked up): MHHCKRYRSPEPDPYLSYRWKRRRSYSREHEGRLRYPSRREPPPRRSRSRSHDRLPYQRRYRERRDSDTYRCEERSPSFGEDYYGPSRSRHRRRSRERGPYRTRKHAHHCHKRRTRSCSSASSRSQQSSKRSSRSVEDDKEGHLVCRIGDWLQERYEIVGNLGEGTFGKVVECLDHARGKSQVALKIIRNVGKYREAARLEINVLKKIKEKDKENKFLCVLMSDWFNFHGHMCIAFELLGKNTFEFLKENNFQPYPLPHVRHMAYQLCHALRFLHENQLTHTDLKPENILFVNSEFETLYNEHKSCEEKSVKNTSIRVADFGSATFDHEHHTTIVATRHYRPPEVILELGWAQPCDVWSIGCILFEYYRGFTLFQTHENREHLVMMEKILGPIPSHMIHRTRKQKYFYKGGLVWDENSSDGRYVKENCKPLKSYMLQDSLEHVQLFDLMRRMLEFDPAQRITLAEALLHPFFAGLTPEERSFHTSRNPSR
Chain of DCLK3 (human) (Q9C098 whole entry, looked up): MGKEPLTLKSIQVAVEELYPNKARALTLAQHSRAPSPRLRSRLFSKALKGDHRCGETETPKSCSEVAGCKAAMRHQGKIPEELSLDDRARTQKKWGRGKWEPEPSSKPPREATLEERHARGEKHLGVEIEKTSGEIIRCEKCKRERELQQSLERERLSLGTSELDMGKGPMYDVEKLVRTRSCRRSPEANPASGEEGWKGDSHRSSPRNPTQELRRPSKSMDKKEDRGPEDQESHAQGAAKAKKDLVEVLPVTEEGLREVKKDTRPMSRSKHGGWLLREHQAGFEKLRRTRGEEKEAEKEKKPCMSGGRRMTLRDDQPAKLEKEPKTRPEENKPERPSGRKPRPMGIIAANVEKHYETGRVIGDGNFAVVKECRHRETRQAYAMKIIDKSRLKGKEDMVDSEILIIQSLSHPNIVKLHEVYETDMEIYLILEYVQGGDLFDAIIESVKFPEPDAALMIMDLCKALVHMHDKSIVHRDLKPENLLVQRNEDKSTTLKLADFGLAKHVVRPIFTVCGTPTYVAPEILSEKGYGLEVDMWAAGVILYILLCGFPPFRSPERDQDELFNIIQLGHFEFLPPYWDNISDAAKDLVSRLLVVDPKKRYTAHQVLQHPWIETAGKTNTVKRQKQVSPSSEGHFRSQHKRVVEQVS
Chain of CHUK (human) (O15111 whole entry, looked up): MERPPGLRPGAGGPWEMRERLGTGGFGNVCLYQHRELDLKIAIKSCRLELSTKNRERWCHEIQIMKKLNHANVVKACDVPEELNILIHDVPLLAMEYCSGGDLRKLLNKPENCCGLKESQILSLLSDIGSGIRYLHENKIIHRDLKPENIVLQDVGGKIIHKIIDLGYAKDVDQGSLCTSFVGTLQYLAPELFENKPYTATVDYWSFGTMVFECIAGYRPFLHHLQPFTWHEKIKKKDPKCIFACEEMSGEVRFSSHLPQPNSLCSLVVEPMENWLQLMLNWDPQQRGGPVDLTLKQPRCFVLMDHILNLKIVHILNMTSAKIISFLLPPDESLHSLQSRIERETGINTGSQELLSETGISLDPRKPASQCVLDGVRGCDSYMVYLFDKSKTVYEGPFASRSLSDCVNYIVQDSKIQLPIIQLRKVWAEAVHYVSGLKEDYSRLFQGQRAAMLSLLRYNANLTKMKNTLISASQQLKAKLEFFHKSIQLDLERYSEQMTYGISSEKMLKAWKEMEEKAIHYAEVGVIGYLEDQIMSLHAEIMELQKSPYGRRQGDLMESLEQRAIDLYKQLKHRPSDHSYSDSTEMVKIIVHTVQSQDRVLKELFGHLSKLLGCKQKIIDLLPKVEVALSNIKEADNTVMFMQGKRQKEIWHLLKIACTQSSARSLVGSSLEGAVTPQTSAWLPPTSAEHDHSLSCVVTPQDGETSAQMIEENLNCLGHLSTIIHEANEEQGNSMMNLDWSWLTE
Chain of KIT (human), P10721 [V559D] (P10721 whole entry V559D, looked up): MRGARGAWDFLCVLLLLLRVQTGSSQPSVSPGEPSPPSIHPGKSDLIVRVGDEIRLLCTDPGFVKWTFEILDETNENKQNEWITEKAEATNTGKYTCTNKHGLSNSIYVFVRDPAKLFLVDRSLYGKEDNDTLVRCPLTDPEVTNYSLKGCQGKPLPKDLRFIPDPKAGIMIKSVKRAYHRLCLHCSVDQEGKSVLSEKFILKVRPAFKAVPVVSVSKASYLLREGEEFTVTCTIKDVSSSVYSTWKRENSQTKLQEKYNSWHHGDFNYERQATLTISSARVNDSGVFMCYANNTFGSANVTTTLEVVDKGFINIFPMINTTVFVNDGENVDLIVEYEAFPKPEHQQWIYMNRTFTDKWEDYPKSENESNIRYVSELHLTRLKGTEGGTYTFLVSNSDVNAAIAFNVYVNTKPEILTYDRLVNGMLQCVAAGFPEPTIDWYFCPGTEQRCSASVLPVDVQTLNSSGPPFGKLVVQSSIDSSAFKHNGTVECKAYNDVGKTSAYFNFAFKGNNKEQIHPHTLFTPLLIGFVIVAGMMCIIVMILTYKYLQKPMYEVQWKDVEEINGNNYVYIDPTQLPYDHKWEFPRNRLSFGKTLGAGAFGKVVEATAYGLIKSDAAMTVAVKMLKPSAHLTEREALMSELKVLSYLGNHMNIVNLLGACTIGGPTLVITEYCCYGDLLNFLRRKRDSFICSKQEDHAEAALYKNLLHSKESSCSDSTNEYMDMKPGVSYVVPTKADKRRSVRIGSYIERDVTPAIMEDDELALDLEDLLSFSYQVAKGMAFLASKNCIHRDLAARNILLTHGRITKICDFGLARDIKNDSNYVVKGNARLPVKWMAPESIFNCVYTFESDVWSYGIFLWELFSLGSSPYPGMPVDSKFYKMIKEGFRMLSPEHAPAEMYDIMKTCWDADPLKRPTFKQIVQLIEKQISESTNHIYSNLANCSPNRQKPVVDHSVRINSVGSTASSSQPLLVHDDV
Chain of MYLK3 (human) (Q32MK0 whole entry, looked up): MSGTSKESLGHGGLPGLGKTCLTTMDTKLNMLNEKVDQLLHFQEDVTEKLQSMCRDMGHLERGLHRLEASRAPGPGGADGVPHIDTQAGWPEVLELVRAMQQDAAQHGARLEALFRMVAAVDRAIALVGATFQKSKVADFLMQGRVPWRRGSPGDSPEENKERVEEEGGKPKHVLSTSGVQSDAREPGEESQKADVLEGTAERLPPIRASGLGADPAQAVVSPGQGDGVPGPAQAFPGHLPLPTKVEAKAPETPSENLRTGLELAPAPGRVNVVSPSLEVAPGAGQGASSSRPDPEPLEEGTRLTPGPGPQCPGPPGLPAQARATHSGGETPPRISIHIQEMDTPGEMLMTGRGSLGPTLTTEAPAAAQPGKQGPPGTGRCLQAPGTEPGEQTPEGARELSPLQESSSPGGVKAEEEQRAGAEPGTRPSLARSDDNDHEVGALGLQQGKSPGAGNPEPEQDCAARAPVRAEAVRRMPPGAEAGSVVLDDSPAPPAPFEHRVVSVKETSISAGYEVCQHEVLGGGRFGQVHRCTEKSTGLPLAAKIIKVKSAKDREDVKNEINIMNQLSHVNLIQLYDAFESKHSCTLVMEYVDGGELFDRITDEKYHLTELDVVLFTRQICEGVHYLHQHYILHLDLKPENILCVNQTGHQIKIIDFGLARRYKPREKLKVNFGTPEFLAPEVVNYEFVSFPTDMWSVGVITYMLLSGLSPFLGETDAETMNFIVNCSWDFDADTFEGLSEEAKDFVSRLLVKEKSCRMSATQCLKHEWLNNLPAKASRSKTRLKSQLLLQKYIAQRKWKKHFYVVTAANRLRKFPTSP
Chain of RIPK4 (human) (P57078 whole entry, looked up): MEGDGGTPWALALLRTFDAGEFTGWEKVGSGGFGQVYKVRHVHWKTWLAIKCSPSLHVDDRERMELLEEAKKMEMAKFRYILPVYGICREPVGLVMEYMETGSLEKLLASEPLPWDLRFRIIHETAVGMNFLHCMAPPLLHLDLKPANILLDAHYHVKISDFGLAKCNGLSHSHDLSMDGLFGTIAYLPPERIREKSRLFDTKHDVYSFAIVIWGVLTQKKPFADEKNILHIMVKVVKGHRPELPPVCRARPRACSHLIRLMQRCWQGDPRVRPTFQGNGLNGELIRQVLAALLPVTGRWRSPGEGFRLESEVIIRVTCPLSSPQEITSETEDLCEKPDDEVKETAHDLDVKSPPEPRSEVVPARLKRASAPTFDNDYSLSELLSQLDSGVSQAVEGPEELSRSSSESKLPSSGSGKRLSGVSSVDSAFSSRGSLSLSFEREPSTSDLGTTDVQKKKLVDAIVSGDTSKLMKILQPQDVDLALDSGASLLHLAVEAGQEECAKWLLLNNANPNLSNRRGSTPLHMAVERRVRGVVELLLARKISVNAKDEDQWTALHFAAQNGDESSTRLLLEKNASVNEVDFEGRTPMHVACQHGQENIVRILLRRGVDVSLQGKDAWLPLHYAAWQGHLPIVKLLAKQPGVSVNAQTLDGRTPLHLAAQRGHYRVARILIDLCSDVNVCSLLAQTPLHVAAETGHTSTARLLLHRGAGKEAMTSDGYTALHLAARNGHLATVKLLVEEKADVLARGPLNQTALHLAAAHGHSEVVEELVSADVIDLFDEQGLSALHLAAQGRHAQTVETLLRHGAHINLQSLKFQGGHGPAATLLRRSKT
Chain of STK17A (human) (Q9UEE5 whole entry, looked up): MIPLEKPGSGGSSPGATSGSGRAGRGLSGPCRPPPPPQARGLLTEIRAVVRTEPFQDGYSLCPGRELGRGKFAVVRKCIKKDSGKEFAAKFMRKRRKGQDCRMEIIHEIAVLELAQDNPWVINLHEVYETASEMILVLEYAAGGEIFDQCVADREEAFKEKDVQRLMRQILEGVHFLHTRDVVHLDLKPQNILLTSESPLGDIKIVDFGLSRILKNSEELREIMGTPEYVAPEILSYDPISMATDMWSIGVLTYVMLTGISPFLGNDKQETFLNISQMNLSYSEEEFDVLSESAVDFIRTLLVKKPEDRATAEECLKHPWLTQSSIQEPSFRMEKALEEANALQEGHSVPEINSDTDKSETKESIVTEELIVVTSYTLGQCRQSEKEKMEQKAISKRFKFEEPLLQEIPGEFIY
Chain of KIT (human) (P10721 whole entry, looked up): as the sequence (P10721 whole entry V559D, looked up) above, with D559V counted along it

kinase still bound, per cent of control (RIOK1 (human)): 80% | kinase still bound, per cent of control (STK17A (human)): 100% | kinase still bound, per cent of control (BMPR1B (human)): 100% | kinase still bound, per cent of control [1]: 100% | kinase still bound, per cent of control (KIT (human)): 74% | kinase still bound, per cent of control (CSNK1G3 (human)): 100% | kinase still bound, per cent of control (PIP4K2B (human)): 100% | kinase still bound, per cent of control (ACVR2B (human)): 100% | kinase still bound, per cent of control (MINK1 (human)): 100% | kinase still bound, per cent of control (RIOK2 (human)): 85% | kinase still bound, per cent of control (RIPK4 (human)): 96% | kinase still bound, per cent of control (RPS6KA5 KD2 (human)): 100% | kinase still bound, per cent of control (AURKC (human)): 99% | kinase still bound, per cent of control (TNK1 (human)): 92% | kinase still bound, per cent of control (CLK3 (human)): 100% | kinase still bound, per cent of control (CSNK1G1 (human)): 100% | kinase still bound, per cent of control (TAOK3 (human)): 92% | kinase still bound, per cent of control [2]: 100% | kinase still bound, per cent of control (DAPK1 (human)): 84% | kinase still bound, per cent of control (ACVR1 (human)): 91% | kinase still bound, per cent of control (CHUK (human)): 83% | kinase still bound, per cent of control (CDK16 (human)): 100% | kinase still bound, per cent of control (MAP4K4 (human)): 100% | kinase still bound, per cent of control [3]: 78% | kinase still bound, per cent of control (CAMKK1 (human)): 100% | kinase still bound, per cent of control (NEK2 (human)): 100% | kinase still bound, per cent of control [4]: 100% | kinase still bound, per cent of control (STK24 (human)): 100% | kinase still bound, per cent of control (MAP2K4 (human)): 86% | kinase still bound, per cent of control (FLT3 (human)): 100% | kinase still bound, per cent of control [5]: 89% | kinase still bound, per cent of control (DCLK3 (human)): 100% | kinase still bound, per cent of control (ACVR2A (human)): 100% | kinase still bound, per cent of control (TGFBR2 (human)): 100% | kinase still bound, per cent of control (MYLK3 (human)): 100% | kinase still bound, per cent of control (STK16 (human)): 85% | kinase still bound, per cent of control (MAP3K5 (human)): 94% | kinase still bound, per cent of control (PHKG2 (human)): 90% | kinase still bound, per cent of control [6]: 100% | kinase still bound, per cent of control [7]: 100% | kinase still bound, per cent of control (SRPK3 (human)): 100% | kinase still bound, per cent of control (PDGFRB (human)): 80%
SMILES: CN1CCN(c2ccc(C(=O)Nc3ncc4c(n3)N(C)c3ccccc3C(=O)N4C)cc2)CC1

kinase still bound, per cent of control (RIOK1 (human)): 78% | kinase still bound, per cent of control (STK17A (human)): 100% | kinase still bound, per cent of control (BMPR1B (human)): 100% | kinase still bound, per cent of control [1]: 92% | kinase still bound, per cent of control (KIT (human)): 100% | kinase still bound, per cent of control (CSNK1G3 (human)): 98% | kinase still bound, per cent of control (PIP4K2B (human)): 91% | kinase still bound, per cent of control (ACVR2B (human)): 92% | kinase still bound, per cent of control (MINK1 (human)): 100% | kinase still bound, per cent of control (RIOK2 (human)): 50% | kinase still bound, per cent of control (RIPK4 (human)): 100% | kinase still bound, per cent of control (RPS6KA5 KD2 (human)): 93% | kinase still bound, per cent of control (AURKC (human)): 86% | kinase still bound, per cent of control (TNK1 (human)): 4.9% | kinase still bound, per cent of control (CLK3 (human)): 100% | kinase still bound, per cent of control (CSNK1G1 (human)): 100% | kinase still bound, per cent of control (TAOK3 (human)): 67% | kinase still bound, per cent of control [2]: 100% | kinase still bound, per cent of control (DAPK1 (human)): 82% | kinase still bound, per cent of control (ACVR1 (human)): 100% | kinase still bound, per cent of control (CHUK (human)): 60% | kinase still bound, per cent of control (CDK16 (human)): 93% | kinase still bound, per cent of control (MAP4K4 (human)): 85% | kinase still bound, per cent of control [3]: 92% | kinase still bound, per cent of control (CAMKK1 (human)): 73% | kinase still bound, per cent of control (NEK2 (human)): 96% | kinase still bound, per cent of control [4]: 100% | kinase still bound, per cent of control (STK24 (human)): 100% | kinase still bound, per cent of control (MAP2K4 (human)): 98% | kinase still bound, per cent of control (FLT3 (human)): 96% | kinase still bound, per cent of control [5]: 95% | kinase still bound, per cent of control (DCLK3 (human)): 100% | kinase still bound, per cent of control (ACVR2A (human)): 92% | kinase still bound, per cent of control (TGFBR2 (human)): 98% | kinase still bound, per cent of control (MYLK3 (human)): 100% | kinase still bound, per cent of control (STK16 (human)): 100% | kinase still bound, per cent of control (MAP3K5 (human)): 100% | kinase still bound, per cent of control (PHKG2 (human)): 15% | kinase still bound, per cent of control [6]: 86% | kinase still bound, per cent of control [7]: 97% | kinase still bound, per cent of control (SRPK3 (human)): 68% | kinase still bound, per cent of control (PDGFRB (human)): 98%
SMILES: COc1cc(N2CCN(C)CC2)ccc1Nc1ncc2c(n1)N(C)c1ccccc1N(C)C2=O

kinase still bound, per cent of control (RIOK1 (human)): 90% | kinase still bound, per cent of control (STK17A (human)): 100% | kinase still bound, per cent of control (BMPR1B (human)): 13% | kinase still bound, per cent of control [1]: 85% | kinase still bound, per cent of control (KIT (human)): 66% | kinase still bound, per cent of control (CSNK1G3 (human)): 67% | kinase still bound, per cent of control (PIP4K2B (human)): 75% | kinase still bound, per cent of control (ACVR2B (human)): 45% | kinase still bound, per cent of control (MINK1 (human)): 100% | kinase still bound, per cent of control (RIOK2 (human)): 63% | kinase still bound, per cent of control (RIPK4 (human)): 61% | kinase still bound, per cent of control (RPS6KA5 KD2 (human)): 100% | kinase still bound, per cent of control (AURKC (human)): 22% | kinase still bound, per cent of control (TNK1 (human)): 0.95% | kinase still bound, per cent of control (CLK3 (human)): 97% | kinase still bound, per cent of control (CSNK1G1 (human)): 73% | kinase still bound, per cent of control (TAOK3 (human)): 1.2% | kinase still bound, per cent of control [2]: 93% | kinase still bound, per cent of control (DAPK1 (human)): 98% | kinase still bound, per cent of control (ACVR1 (human)): 88% | kinase still bound, per cent of control (CHUK (human)): 79% | kinase still bound, per cent of control (CDK16 (human)): 100% | kinase still bound, per cent of control (MAP4K4 (human)): 85% | kinase still bound, per cent of control [3]: 80% | kinase still bound, per cent of control (CAMKK1 (human)): 98% | kinase still bound, per cent of control (NEK2 (human)): 100% | kinase still bound, per cent of control [4]: 98% | kinase still bound, per cent of control (STK24 (human)): 82% | kinase still bound, per cent of control (MAP2K4 (human)): 74% | kinase still bound, per cent of control (FLT3 (human)): 100% | kinase still bound, per cent of control [5]: 80% | kinase still bound, per cent of control (DCLK3 (human)): 68% | kinase still bound, per cent of control (ACVR2A (human)): 90% | kinase still bound, per cent of control (TGFBR2 (human)): 100% | kinase still bound, per cent of control (MYLK3 (human)): 100% | kinase still bound, per cent of control (STK16 (human)): 59% | kinase still bound, per cent of control (MAP3K5 (human)): 100% | kinase still bound, per cent of control (PHKG2 (human)): 100% | kinase still bound, per cent of control [6]: 28% | kinase still bound, per cent of control [7]: 4.8% | kinase still bound, per cent of control (SRPK3 (human)): 84% | kinase still bound, per cent of control (PDGFRB (human)): 61%
SMILES: CN1C(=O)c2ccccc2N(C)c2nc(Nc3ccc(N4CCC(O)CC4)cc3)ncc21
